Key:
Assay type in all cases: binding
[1] = system: human monoclonal antibody CRJB
[2] = system: human monoclonal antibody CR57
[3] = system: human monoclonal antibody CRJA
[4] = system: human monoclonal antibody CRJB; remark: listed apart in the source
[5] = system: human monoclonal antibody CR57; remark: listed apart in the source
[6] = system: human monoclonal antibody CRJA; remark: listed apart in the source

Sequence: EESLHNPYPDYRWLR
- Binding of CRJB to linear peptide (PEPSCAN-ELISA signal) [1]: 123
- Binding of CR57 to linear peptide (PEPSCAN-ELISA signal) [2]: 76
- Binding of CRJA to linear peptide (PEPSCAN-ELISA signal) [3]: 85
- Binding of CRJB (10 μg/ml) to looped/cyclic peptide (PEPSCAN-ELISA signal) [4]: 85
- Binding of CR57 (10 μg/ml) to looped/cyclic peptide (PEPSCAN-ELISA signal) [5]: 121
- Binding of CRJA (10 μg/ml) to looped/cyclic peptide (PEPSCAN-ELISA signal) [6]: 100

Sequence: VKTTKESLVIISPSV
- Binding of CRJB to linear peptide (PEPSCAN-ELISA signal) [1]: 120
- Binding of CR57 to linear peptide (PEPSCAN-ELISA signal) [2]: 71
- Binding of CRJA to linear peptide (PEPSCAN-ELISA signal) [3]: 96
- Binding of CRJB (10 μg/ml) to looped/cyclic peptide (PEPSCAN-ELISA signal) [4]: 92
- Binding of CR57 (10 μg/ml) to looped/cyclic peptide (PEPSCAN-ELISA signal) [5]: 98
- Binding of CRJA (10 μg/ml) to looped/cyclic peptide (PEPSCAN-ELISA signal) [6]: 100

Sequence: PLVHPLADPSTVFKD
- Binding of CRJB to linear peptide (PEPSCAN-ELISA signal) [1]: 112
- Binding of CR57 to linear peptide (PEPSCAN-ELISA signal) [2]: 93
- Binding of CRJA to linear peptide (PEPSCAN-ELISA signal) [3]: 90
- Binding of CRJB (10 μg/ml) to looped/cyclic peptide (PEPSCAN-ELISA) [4]: 90
- Binding of CR57 (10 μg/ml) to looped/cyclic peptide (PEPSCAN-ELISA) [5]: 101
- Binding of CRJA (10 μg/ml) to looped/cyclic peptide (PEPSCAN-ELISA) [6]: 104

Sequence: FVDERGLYKSLKGAC
- Binding of CRJB to linear peptide (PEPSCAN-ELISA signal) [1]: 121
- Binding of CR57 to linear peptide (PEPSCAN-ELISA signal) [2]: 86
- Binding of CRJA to linear peptide (PEPSCAN-ELISA signal) [3]: 116
- Binding of CRJB (10 μg/ml) to looped/cyclic peptide (PEPSCAN-ELISA) [4]: 79
- Binding of CR57 (10 μg/ml) to looped/cyclic peptide (PEPSCAN-ELISA) [5]: 97
- Binding of CRJA (10 μg/ml) to looped/cyclic peptide (PEPSCAN-ELISA) [6]: 92

Sequence: VTEAENYTNFVGYVT
- Binding of CRJB to linear peptide (PEPSCAN-ELISA signal) [1]: 90
- Binding of CR57 to linear peptide (PEPSCAN-ELISA signal) [2]: 79
- Binding of CRJA to linear peptide (PEPSCAN-ELISA signal) [3]: 79
- Binding of CRJB (10 μg/ml) to looped/cyclic peptide (PEPSCAN-ELISA signal) [4]: 80
- Binding of CR57 (10 μg/ml) to looped/cyclic peptide (PEPSCAN-ELISA signal) [5]: 84
- Binding of CRJA (10 μg/ml) to looped/cyclic peptide (PEPSCAN-ELISA signal) [6]: 97

Sequence: VFFNGIILGPDGNVL
- Binding of CRJB to linear peptide (PEPSCAN-ELISA signal) [1]: 132
- Binding of CR57 to linear peptide (PEPSCAN-ELISA signal) [2]: 55
- Binding of CRJA to linear peptide (PEPSCAN-ELISA signal) [3]: 82
- Binding of CRJB (10 μg/ml) to looped/cyclic peptide (PEPSCAN-ELISA) [4]: 93
- Binding of CR57 (10 μg/ml) to looped/cyclic peptide (PEPSCAN-ELISA) [5]: 110
- Binding of CRJA (10 μg/ml) to looped/cyclic peptide (PEPSCAN-ELISA) [6]: 83

Sequence: VVEDEGCTNLSGFSY
- Binding of CRJB to linear peptide (PEPSCAN-ELISA signal) [1]: 107
- Binding of CR57 to linear peptide (PEPSCAN-ELISA signal) [2]: 73
- Binding of CRJA to linear peptide (PEPSCAN-ELISA signal) [3]: 63
- Binding of CRJB (10 μg/ml) to looped/cyclic peptide (PEPSCAN-ELISA signal) [4]: 66
- Binding of CR57 (10 μg/ml) to looped/cyclic peptide (PEPSCAN-ELISA signal) [5]: 79
- Binding of CRJA (10 μg/ml) to looped/cyclic peptide (PEPSCAN-ELISA signal) [6]: 68

Sequence: KSVRTWNEILPSKGC
- Binding of CRJB to linear peptide (PEPSCAN-ELISA signal) [1]: 125
- Binding of CR57 to linear peptide (PEPSCAN-ELISA signal) [2]: 115
- Binding of CRJA to linear peptide (PEPSCAN-ELISA signal) [3]: 90
- Binding of CRJB (10 μg/ml) to looped/cyclic peptide (PEPSCAN-ELISA) [4]: 104
- Binding of CR57 (10 μg/ml) to looped/cyclic peptide (PEPSCAN-ELISA) [5]: 148
- Binding of CRJA (10 μg/ml) to looped/cyclic peptide (PEPSCAN-ELISA) [6]: 110

Sequence: AYNWKMAGDPRYEES
- Binding of CRJB to linear peptide (PEPSCAN-ELISA signal) [1]: 94
- Binding of CR57 to linear peptide (PEPSCAN-ELISA signal) [2]: 96
- Binding of CRJA to linear peptide (PEPSCAN-ELISA signal) [3]: 90
- Binding of CRJB (10 μg/ml) to looped/cyclic peptide (PEPSCAN-ELISA signal) [4]: 77
- Binding of CR57 (10 μg/ml) to looped/cyclic peptide (PEPSCAN-ELISA signal) [5]: 96
- Binding of CRJA (10 μg/ml) to looped/cyclic peptide (PEPSCAN-ELISA signal) [6]: 72

Sequence: FFNGIILGPDGNVLI
- Binding of CRJB to linear peptide (PEPSCAN-ELISA signal) [1]: 143
- Binding of CR57 to linear peptide (PEPSCAN-ELISA signal) [2]: 92
- Binding of CRJA to linear peptide (PEPSCAN-ELISA signal) [3]: 119
- Binding of CRJB (10 μg/ml) to looped/cyclic peptide (PEPSCAN-ELISA) [4]: 96
- Binding of CR57 (10 μg/ml) to looped/cyclic peptide (PEPSCAN-ELISA) [5]: 72
- Binding of CRJA (10 μg/ml) to looped/cyclic peptide (PEPSCAN-ELISA) [6]: 100

Sequence: IILGPDGNVLIPEMQ
- Binding of CRJB to linear peptide (PEPSCAN-ELISA signal) [1]: 118
- Binding of CR57 to linear peptide (PEPSCAN-ELISA signal) [2]: 85
- Binding of CRJA to linear peptide (PEPSCAN-ELISA signal) [3]: 80
- Binding of CRJB (10 μg/ml) to looped/cyclic peptide (PEPSCAN-ELISA) [4]: 83
- Binding of CR57 (10 μg/ml) to looped/cyclic peptide (PEPSCAN-ELISA) [5]: 99
- Binding of CRJA (10 μg/ml) to looped/cyclic peptide (PEPSCAN-ELISA) [6]: 107

Sequence: SPIDIHHLSCPNNLV
- Binding of CRJB to linear peptide (PEPSCAN-ELISA signal) [1]: 85
- Binding of CR57 to linear peptide (PEPSCAN-ELISA signal) [2]: 74
- Binding of CRJA to linear peptide (PEPSCAN-ELISA signal) [3]: 100
- Binding of CRJB (10 μg/ml) to looped/cyclic peptide (PEPSCAN-ELISA signal) [4]: 72
- Binding of CR57 (10 μg/ml) to looped/cyclic peptide (PEPSCAN-ELISA signal) [5]: 94
- Binding of CRJA (10 μg/ml) to looped/cyclic peptide (PEPSCAN-ELISA signal) [6]: 92

Reference: patent US20060263802A1 (priority 2003, published 2006)
